Results reported in ChEMBL document CHEMBL1201862, “PubChem BioAssay data set” (2004).
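Step 1: Grow cells in 96-well plates. Step 2: Expose to compound for 48 hours at 5 concentrations. Step 3: Interpolate endpoints linearly; if unreached, use highest concentration. The concentration for 50% growth inhibition is given as GI50.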 Activity calls are given as the source filed them. Cut-off read from the data, not from the text of the source: active = GI50 up to about 1.1 µM and inactive = higher.

Experiments:
Test in all cases: growth of human tumour cells (NCI), 48 h
UACC-62 = test system: UACC-62
U-251 = test system: U-251
MDA-MB-435 = test system: MDA-MB-435
HL-60 = test system: HL-60
T47D = test system: T47D
DU-145 = test system: DU-145
HOP-62 = test system: HOP-62
SK-MEL-28 = test system: SK-MEL-28
MDA-N = test system: MDA-N
K562 = test system: K562
SNB-75 = test system: SNB-75
COLO 205 = test system: COLO 205
NCI-H460 = test system: NCI-H460
OVCAR-5 = test system: OVCAR-5
CCRF-CEM = test system: CCRF-CEM
HCT-116 = test system: HCT-116
CAKI-1 = test system: CAKI-1
HOP-92 = test system: HOP-92

| Structure (SMILES) | GI50 (UACC-62) | GI50 (U-251) | GI50 (MDA-MB-435) | GI50 (HL-60) | GI50 (T47D) | GI50 (DU-145) | GI50 (HOP-62) | GI50 (SK-MEL-28) | GI50 (MDA-N) | GI50 (K562) | GI50 (SNB-75) | GI50 (COLO 205) | GI50 (NCI-H460) | GI50 (OVCAR-5) | GI50 (CCRF-CEM) | GI50 (HCT-116) | GI50 (CAKI-1) | GI50 (HOP-92) |
| --- | --- | --- | --- | --- | --- | --- | --- | --- | --- | --- | --- | --- | --- | --- | --- | --- | --- | --- |
| c1ccc2cc(CN3CCC(C4CCN(Cc5ccc6ccccc6c5)CC4)CC3)ccc2c1 | 2.03 µM (inactive) | 2.33 µM (inactive) | 1.75 µM (inactive) | 1.53 µM (inactive) | 4.76 µM (inactive) | 11.8 µM (inactive) | 2.49 µM (inactive) | 1.87 µM (inactive) | 1.96 µM (inactive) | 0.692 µM (active) | 2.67 µM (inactive) | 1.76 µM (inactive) | 3.11 µM (inactive) | 10.1 µM (inactive) | 4.06 µM (inactive) | 6.79 µM (inactive) | 5.53 µM (inactive) | 4.1 µM (inactive) |
| OCCC/N=C1N=C(Cl)/C(=C\c2ccccc2)N\1 | – | > 100 µM (inactive) | > 100 µM (inactive) | > 100 µM (inactive) | > 100 µM (inactive) | > 100 µM (inactive) | – | > 100 µM (inactive) | > 100 µM (inactive) | > 100 µM (inactive) | > 100 µM (inactive) | > 100 µM (inactive) | – | > 100 µM (inactive) | > 100 µM (inactive) | > 100 µM (inactive) | > 100 µM (inactive) | > 100 µM (inactive) |
| COc1cccc(Nc2nc(N)nc(N)c2N=O)c1 | 15.5 µM (inactive) | 31.8 µM (inactive) | 16.9 µM (inactive) | 19.1 µM (inactive) | 2.12 µM (inactive) | 13.2 µM (inactive) | 28.8 µM (inactive) | 22 µM (inactive) | 30.8 µM (inactive) | 31.3 µM (inactive) | 10.8 µM (inactive) | 24.4 µM (inactive) | 13.6 µM (inactive) | 37.8 µM (inactive) | 23.2 µM (inactive) | 18.4 µM (inactive) | 11.3 µM (inactive) | 7.14 µM (inactive) |
| COc1ccc(/C=C2\N=C(c3ccccc3)N(NC3=NC(=O)CC(=O)N3)C2=O)cc1 | > 100 µM (inactive) | > 100 µM (inactive) | > 100 µM (inactive) | > 100 µM (inactive) | > 100 µM (inactive) | > 100 µM (inactive) | > 100 µM (inactive) | > 100 µM (inactive) | > 100 µM (inactive) | > 100 µM (inactive) | > 100 µM (inactive) | > 100 µM (inactive) | > 100 µM (inactive) | > 100 µM (inactive) | 39.2 µM (inactive) | > 100 µM (inactive) | > 100 µM (inactive) | > 100 µM (inactive) |
| COCc1nc2c(OC)c(-c3nc4ccc(N5CCN(C)CC5)cc4[nH]3)cc(OC)c2[nH]1 | 80.7 µM (inactive) | 42 µM (inactive) | 33 µM (inactive) | 33.6 µM (inactive) | 65.2 µM (inactive) | 31.3 µM (inactive) | 32.4 µM (inactive) | > 100 µM (inactive) | 33.1 µM (inactive) | 38.8 µM (inactive) | 4.3 µM (inactive) | 25.6 µM (inactive) | 36.7 µM (inactive) | > 100 µM (inactive) | 27.5 µM (inactive) | 30.8 µM (inactive) | 41.7 µM (inactive) | > 100 µM (inactive) |
| COc1ccc2nc3c([N+](=O)[O-])ccc4c3c(c2c1)N=CN4CCN(C)C | 8.71 µM (inactive) | 5.07 µM (inactive) | 6.67 µM (inactive) | 0.266 µM (active) | 5.14 µM (inactive) | 4.09 µM (inactive) | 3.17 µM (inactive) | 7.01 µM (inactive) | 4.71 µM (inactive) | 0.726 µM (active) | 2.9 µM (inactive) | 2.34 µM (inactive) | 2.96 µM (inactive) | 6.7 µM (inactive) | 0.764 µM (active) | 2.44 µM (inactive) | 1.36 µM (inactive) | 5.06 µM (inactive) |
| CCCCCCCCCCCCCCCCNc1nc(=O)n(C2OC(C)C(O)C2O)cc1F (centres undefined) | 15.6 µM (inactive) | 23.7 µM (inactive) | 15.5 µM (inactive) | 14.5 µM (inactive) | 21.1 µM (inactive) | 19.5 µM (inactive) | 16.4 µM (inactive) | 19.2 µM (inactive) | 19.1 µM (inactive) | – | 18.5 µM (inactive) | 24.4 µM (inactive) | 17 µM (inactive) | 20.6 µM (inactive) | 16.3 µM (inactive) | 18.4 µM (inactive) | 21.1 µM (inactive) | 22.9 µM (inactive) |
| C/C(=N\C1CCCCC1)c1ccccc1O | > 100 µM (inactive) | > 100 µM (inactive) | > 100 µM (inactive) | 56.1 µM (inactive) | > 100 µM (inactive) | > 100 µM (inactive) | > 100 µM (inactive) | > 100 µM (inactive) | > 100 µM (inactive) | > 100 µM (inactive) | 57.5 µM (inactive) | > 100 µM (inactive) | > 100 µM (inactive) | > 100 µM (inactive) | 54 µM (inactive) | > 100 µM (inactive) | > 100 µM (inactive) | > 100 µM (inactive) |
| CC1=C(CO)C(=O)O[C@@H]([C@@H](C)[C@H]2CC[C@H]3[C@@H]4C[C@@H](O)[C@@]5(O)CC=CC(=O)[C@]5(C)[C@H]4CC[C@]23C)C1 [JABOROSALACTONE D] | 29.6 µM (inactive) | 37 µM (inactive) | 44.3 µM (inactive) | 21.1 µM (inactive) | 58.1 µM (inactive) | 35.2 µM (inactive) | 64 µM (inactive) | 42.1 µM (inactive) | 45 µM (inactive) | 26.8 µM (inactive) | 25.9 µM (inactive) | 43.1 µM (inactive) | 19.1 µM (inactive) | > 100 µM (inactive) | 33.2 µM (inactive) | 20.5 µM (inactive) | > 100 µM (inactive) | 42 µM (inactive) |
| CCOC(=O)C1=C(C(=O)OCC)SC2(S1)C(C(=O)OCC)=C(C(=O)OCC)Sc1c2ssc1=O | 1.94 µM (inactive) | 1.93 µM (inactive) | 1.99 µM (inactive) | 0.279 µM (active) | 1.76 µM (inactive) | 0.857 µM (active) | 1.67 µM (inactive) | 1.84 µM (inactive) | 1.97 µM (inactive) | 0.474 µM (active) | 1.85 µM (inactive) | 1.84 µM (inactive) | 8.51 µM (inactive) | 4.7 µM (inactive) | 0.16 µM (active) | 0.815 µM (active) | 2.42 µM (inactive) | 1.35 µM (inactive) |
| O=c1[nH]nc(-c2ccccc2)n1/N=C/c1ccncc1 | > 100 µM (inactive) | > 100 µM (inactive) | > 100 µM (inactive) | > 100 µM (inactive) | > 100 µM (inactive) | > 100 µM (inactive) | > 100 µM (inactive) | > 100 µM (inactive) | > 100 µM (inactive) | > 100 µM (inactive) | 81.3 µM (inactive) | 54 µM (inactive) | > 100 µM (inactive) | 37.7 µM (inactive) | > 100 µM (inactive) | 53.6 µM (inactive) | > 100 µM (inactive) | > 100 µM (inactive) |
| CO[C@H]1[C@@H](O)[C@@H](C)O[C@@H](O[C@H]2CC[C@@]3(C)[C@H](CC[C@@H]4[C@@H]3CC[C@]3(C)[C@@H](C5=CC(=O)OC5)CC[C@]43O)C2)[C@@H]1O [ODOROSIDE H] | 0.00689 µM (active) | 0.00836 µM (active) | 0.00908 µM (active) | 0.00378 µM (active) | 0.0333 µM (active) | 0.00377 µM (active) | 0.00361 µM (active) | 0.0394 µM (active) | 0.00767 µM (active) | – | 0.00601 µM (active) | 0.0366 µM (active) | 0.003 µM (active) | 0.0321 µM (active) | 0.00422 µM (active) | 0.00482 µM (active) | 0.0048 µM (active) | 0.0127 µM (active) |
| CC(=O)NCCC1CN(C(=O)/C=C/I)c2ccccc21 (centres undefined) | 5.07 µM (inactive) | 10.8 µM (inactive) | 5.93 µM (inactive) | 3.17 µM (inactive) | 2.04 µM (inactive) | 15.7 µM (inactive) | 14.2 µM (inactive) | 6.04 µM (inactive) | 3.08 µM (inactive) | 3.73 µM (inactive) | 16.8 µM (inactive) | 3.75 µM (inactive) | 4.62 µM (inactive) | 15.8 µM (inactive) | 2.95 µM (inactive) | 4.01 µM (inactive) | 4.75 µM (inactive) | 1.9 µM (inactive) |
| O=C1NC(=S)NC(=O)C1=Cc1cccc2cc3ccccc3cc12 | 1.87 µM (inactive) | 1.69 µM (inactive) | 2.12 µM (inactive) | 1.71 µM (inactive) | 0.9 µM (active) | 1.47 µM (inactive) | 1.84 µM (inactive) | 2.57 µM (inactive) | 2.19 µM (inactive) | 2.07 µM (inactive) | 1.59 µM (inactive) | 1.88 µM (inactive) | 2.12 µM (inactive) | 2.3 µM (inactive) | 0.378 µM (active) | 1.95 µM (inactive) | 2.03 µM (inactive) | 1.66 µM (inactive) |
| OCCNc1ncnc2c1ncn2C1OC(CO)C(O)C1O (centres undefined) | > 100 µM (inactive) | > 100 µM (inactive) | > 100 µM (inactive) | 33.1 µM (inactive) | > 100 µM (inactive) | 19.3 µM (inactive) | > 100 µM (inactive) | > 100 µM (inactive) | > 100 µM (inactive) | – | > 100 µM (inactive) | > 100 µM (inactive) | 87.9 µM (inactive) | > 100 µM (inactive) | 30.3 µM (inactive) | 70.5 µM (inactive) | > 100 µM (inactive) | 51.4 µM (inactive) |
